Experimental data taken from PubChem BioAssay (NCI).
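Briefly, cells in 96-well plates were exposed to five compound concentrations for 48 h, and endpoints were estimated by linear interpolation. Here, GI50 denotes the concentration required for 50% inhibition of growth. Definition used: TGI = concentration required for complete inhibition of growth.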

Legend:
Test in all cases: inhibition of tumour cell growth, NCI panel, 48 h; in the data active = GI50 below about 0.43 µM; inactive = the rest
786-0 renal = tested on: 786-0 renal
A498 renal = tested on: A498 renal
A549 NSCLC = tested on: A549 NSCLC
ACHN renal = tested on: ACHN renal
BT-549 breast = tested on: BT-549 breast
CAKI-1 renal = tested on: CAKI-1 renal
CCRF-CEM leukemia = tested on: CCRF-CEM leukemia
COLO 205 colon = tested on: COLO 205 colon
DU-145 prostate = tested on: DU-145 prostate
EKVX NSCLC = tested on: EKVX NSCLC
HCC-2998 colon = tested on: HCC-2998 colon
HCT-116 colon = tested on: HCT-116 colon
HCT-15 colon = tested on: HCT-15 colon
HOP-62 NSCLC = tested on: HOP-62 NSCLC
HT29 colon = tested on: HT29 colon
IGROV1 ovarian = tested on: IGROV1 ovarian
K-562 leukemia = tested on: K-562 leukemia
KM12 colon = tested on: KM12 colon
LOX IMVI melanoma = tested on: LOX IMVI melanoma
M14 melanoma = tested on: M14 melanoma
MALME-3M melanoma = tested on: MALME-3M melanoma
MCF7 breast = tested on: MCF7 breast
MDA-MB-231 breast = tested on: MDA-MB-231 breast
MDA-MB-435 = tested on: MDA-MB-435
MOLT-4 leukemia = tested on: MOLT-4 leukemia
NCI-H226 lung = tested on: NCI-H226 lung
NCI-H23 lung = tested on: NCI-H23 lung
NCI-H460 lung = tested on: NCI-H460 lung
NCI-H522 lung = tested on: NCI-H522 lung
NCI/ADR-RES ovarian = tested on: NCI/ADR-RES ovarian
OVCAR-3 ovarian = tested on: OVCAR-3 ovarian
OVCAR-4 ovarian = tested on: OVCAR-4 ovarian
OVCAR-5 ovarian = tested on: OVCAR-5 ovarian
OVCAR-8 ovarian = tested on: OVCAR-8 ovarian
PC-3 prostate = tested on: PC-3 prostate
RXF 393 renal = tested on: RXF 393 renal
SF-268 CNS = tested on: SF-268 CNS
SF-295 CNS = tested on: SF-295 CNS
SF-539 CNS = tested on: SF-539 CNS
SK-MEL-2 melanoma = tested on: SK-MEL-2 melanoma
SK-MEL-28 melanoma = tested on: SK-MEL-28 melanoma
SK-MEL-5 melanoma = tested on: SK-MEL-5 melanoma
SK-OV-3 ovarian = tested on: SK-OV-3 ovarian
SN12C renal = tested on: SN12C renal
SNB-19 CNS = tested on: SNB-19 CNS
SNB-75 CNS = tested on: SNB-75 CNS
SW-620 colon = tested on: SW-620 colon
T-47D breast = tested on: T-47D breast
TK-10 renal = tested on: TK-10 renal
U251 CNS = tested on: U251 CNS
UACC-257 melanoma = tested on: UACC-257 melanoma
UACC-62 melanoma = tested on: UACC-62 melanoma
UO-31 renal = tested on: UO-31 renal
HL-60(TB) leukemia = tested on: HL-60(TB) leukemia
HOP-92 NSCLC = tested on: HOP-92 NSCLC
HS 578T breast = tested on: HS 578T breast
RPMI-8226 leukemia = tested on: RPMI-8226 leukemia
SR leukemia = tested on: SR leukemia

N#CC(C#N)=Cc1ccc(-c2ccc(-c3nc4ccccc4o3)cc2)o1
69.5 µM: TGI (MDA-MB-231 breast)
96.4 µM: TGI (HCC-2998 colon)
44.8 µM: TGI (LOX IMVI melanoma)
52.5 µM: TGI (U251 CNS)
50.1 µM: TGI (NCI/ADR-RES ovarian)
34 µM: TGI (786-0 renal)
> 100 µM: TGI (A549 NSCLC) | TGI (ACHN renal) | TGI (BT-549 breast) | TGI (CAKI-1 renal) | TGI (CCRF-CEM leukemia) | TGI (COLO 205 colon) | TGI (DU-145 prostate) | TGI (EKVX NSCLC) | TGI (HCT-15 colon) | TGI (HT29 colon) | TGI (IGROV1 ovarian) | TGI (K-562 leukemia) | TGI (KM12 colon) | TGI (M14 melanoma) | TGI (MALME-3M melanoma) | TGI (MCF7 breast) | TGI (MDA-MB-435) | TGI (MOLT-4 leukemia) | TGI (NCI-H460 lung) | TGI (NCI-H522 lung) | TGI (OVCAR-3 ovarian) | TGI (OVCAR-4 ovarian) | TGI (OVCAR-8 ovarian) | TGI (PC-3 prostate) | TGI (RXF 393 renal) | TGI (SF-268 CNS) | TGI (SF-295 CNS) | TGI (SF-539 CNS) | TGI (SK-MEL-2 melanoma) | TGI (SK-MEL-28 melanoma) | TGI (SK-OV-3 ovarian) | TGI (SNB-19 CNS) | TGI (SNB-75 CNS) | TGI (SW-620 colon) | TGI (UACC-257 melanoma) | TGI (UACC-62 melanoma) | TGI (UO-31 renal)
42.3 µM: TGI (HCT-116 colon)
77.3 µM: TGI (TK-10 renal)
inactive: GI50 (786-0 renal) 15.8 µM | GI50 (A498 renal) 24.9 µM | GI50 (A549 NSCLC) 28.2 µM | GI50 (ACHN renal) 50.8 µM | GI50 (BT-549 breast) > 100 µM | GI50 (CAKI-1 renal) 40 µM | GI50 (CCRF-CEM leukemia) 11.6 µM | GI50 (COLO 205 colon) 40 µM | GI50 (DU-145 prostate) 36.5 µM | GI50 (EKVX NSCLC) > 100 µM | GI50 (HCC-2998 colon) 47.1 µM | GI50 (HCT-116 colon) 18.2 µM | GI50 (HCT-15 colon) 20.2 µM | GI50 (HOP-62 NSCLC) 21.6 µM | GI50 (HT29 colon) 41.2 µM | GI50 (IGROV1 ovarian) 65.8 µM | GI50 (K-562 leukemia) 19.3 µM | GI50 (KM12 colon) 19.4 µM | GI50 (LOX IMVI melanoma) 16.6 µM | GI50 (M14 melanoma) 77.4 µM | GI50 (MALME-3M melanoma) 41.9 µM | GI50 (MCF7 breast) 7.99 µM | GI50 (MDA-MB-231 breast) 19.9 µM | GI50 (MDA-MB-435) 57 µM | GI50 (MOLT-4 leukemia) 12.1 µM | GI50 (NCI-H226 lung) 21 µM | GI50 (NCI-H23 lung) 27.2 µM | GI50 (NCI-H460 lung) 38.4 µM | GI50 (NCI-H522 lung) 60.4 µM | GI50 (NCI/ADR-RES ovarian) 20.8 µM | GI50 (OVCAR-3 ovarian) 66.7 µM | GI50 (OVCAR-4 ovarian) > 100 µM | GI50 (OVCAR-5 ovarian) 27.1 µM | GI50 (OVCAR-8 ovarian) 29.9 µM | GI50 (PC-3 prostate) 29.5 µM | GI50 (RXF 393 renal) 96.2 µM | GI50 (SF-268 CNS) 52 µM | GI50 (SF-295 CNS) 30.1 µM | GI50 (SF-539 CNS) 31.1 µM | GI50 (SK-MEL-2 melanoma) > 100 µM | GI50 (SK-MEL-28 melanoma) > 100 µM | GI50 (SK-MEL-5 melanoma) 13.1 µM | GI50 (SK-OV-3 ovarian) 38.3 µM | GI50 (SNB-19 CNS) > 100 µM | GI50 (SNB-75 CNS) > 100 µM | GI50 (SW-620 colon) 20.5 µM | GI50 (T-47D breast) 5.04 µM | GI50 (TK-10 renal) 23.7 µM | GI50 (U251 CNS) 21.7 µM | GI50 (UACC-257 melanoma) > 100 µM | GI50 (UACC-62 melanoma) 42.4 µM | GI50 (UO-31 renal) 58.4 µM
93.8 µM: TGI (NCI-H23 lung)
51.9 µM: TGI (HOP-62 NSCLC)
90.1 µM: TGI (T-47D breast)
99.7 µM: TGI (NCI-H226 lung)
62.5 µM: TGI (SK-MEL-5 melanoma)
16.5 µM: TGI (SN12C renal)
70 µM: TGI (A498 renal)
52 µM: TGI (OVCAR-5 ovarian)

CON
> 100 µM: TGI (786-0 renal) | TGI (A549 NSCLC) | TGI (ACHN renal) | TGI (BT-549 breast) | TGI (CAKI-1 renal) | TGI (CCRF-CEM leukemia) | TGI (COLO 205 colon) | TGI (DU-145 prostate) | TGI (EKVX NSCLC) | TGI (HCC-2998 colon) | TGI (HCT-116 colon) | TGI (HCT-15 colon) | TGI (HL-60(TB) leukemia) | TGI (HOP-62 NSCLC) | TGI (HOP-92 NSCLC) | TGI (HS 578T breast) | TGI (HT29 colon) | TGI (IGROV1 ovarian) | TGI (KM12 colon) | TGI (LOX IMVI melanoma) | TGI (M14 melanoma) | TGI (MALME-3M melanoma) | TGI (MCF7 breast) | TGI (MDA-MB-231 breast) | TGI (MDA-MB-435) | TGI (MOLT-4 leukemia) | TGI (NCI-H226 lung) | TGI (NCI-H23 lung) | TGI (NCI-H460 lung) | TGI (NCI-H522 lung) | TGI (NCI/ADR-RES ovarian) | TGI (OVCAR-3 ovarian) | TGI (OVCAR-4 ovarian) | TGI (OVCAR-5 ovarian) | TGI (OVCAR-8 ovarian) | TGI (RPMI-8226 leukemia) | TGI (RXF 393 renal) | TGI (SF-268 CNS) | TGI (SF-295 CNS) | TGI (SF-539 CNS) | TGI (SK-MEL-2 melanoma) | TGI (SK-MEL-28 melanoma) | TGI (SK-MEL-5 melanoma) | TGI (SK-OV-3 ovarian) | TGI (SN12C renal) | TGI (SNB-19 CNS) | TGI (SNB-75 CNS) | TGI (SR leukemia) | TGI (SW-620 colon) | TGI (T-47D breast) | TGI (TK-10 renal) | TGI (U251 CNS) | TGI (UACC-257 melanoma) | TGI (UACC-62 melanoma) | TGI (UO-31 renal)
inactive: GI50 (786-0 renal) > 100 µM | GI50 (A549 NSCLC) > 100 µM | GI50 (ACHN renal) > 100 µM | GI50 (BT-549 breast) > 100 µM | GI50 (CAKI-1 renal) > 100 µM | GI50 (CCRF-CEM leukemia) > 100 µM | GI50 (COLO 205 colon) > 100 µM | GI50 (DU-145 prostate) > 100 µM | GI50 (EKVX NSCLC) > 100 µM | GI50 (HCC-2998 colon) > 100 µM | GI50 (HCT-116 colon) > 100 µM | GI50 (HCT-15 colon) > 100 µM | GI50 (HL-60(TB) leukemia) > 100 µM | GI50 (HOP-62 NSCLC) > 100 µM | GI50 (HOP-92 NSCLC) > 100 µM | GI50 (HS 578T breast) > 100 µM | GI50 (HT29 colon) > 100 µM | GI50 (IGROV1 ovarian) > 100 µM | GI50 (KM12 colon) > 100 µM | GI50 (LOX IMVI melanoma) > 100 µM | GI50 (M14 melanoma) > 100 µM | GI50 (MALME-3M melanoma) > 100 µM | GI50 (MCF7 breast) > 100 µM | GI50 (MDA-MB-231 breast) > 100 µM | GI50 (MDA-MB-435) > 100 µM | GI50 (MOLT-4 leukemia) > 100 µM | GI50 (NCI-H226 lung) > 100 µM | GI50 (NCI-H23 lung) > 100 µM | GI50 (NCI-H460 lung) > 100 µM | GI50 (NCI-H522 lung) > 100 µM | GI50 (NCI/ADR-RES ovarian) > 100 µM | GI50 (OVCAR-3 ovarian) > 100 µM | GI50 (OVCAR-4 ovarian) > 100 µM | GI50 (OVCAR-5 ovarian) > 100 µM | GI50 (OVCAR-8 ovarian) > 100 µM | GI50 (RPMI-8226 leukemia) > 100 µM | GI50 (RXF 393 renal) > 100 µM | GI50 (SF-268 CNS) > 100 µM | GI50 (SF-295 CNS) > 100 µM | GI50 (SF-539 CNS) > 100 µM | GI50 (SK-MEL-2 melanoma) > 100 µM | GI50 (SK-MEL-28 melanoma) > 100 µM | GI50 (SK-MEL-5 melanoma) > 100 µM | GI50 (SK-OV-3 ovarian) > 100 µM | GI50 (SN12C renal) > 100 µM | GI50 (SNB-19 CNS) > 100 µM | GI50 (SNB-75 CNS) > 100 µM | GI50 (SR leukemia) > 100 µM | GI50 (SW-620 colon) > 100 µM | GI50 (T-47D breast) > 100 µM | GI50 (TK-10 renal) > 100 µM | GI50 (U251 CNS) > 100 µM | GI50 (UACC-257 melanoma) > 100 µM | GI50 (UACC-62 melanoma) > 100 µM | GI50 (UO-31 renal) > 100 µM
